In PubChem BioAssay AID248 (DTP/NCI, 2004) one finds T/C data, which are given here for 21 molecules.

The test system of the assay is L1210 leukemia ip in BDF1 mice, survival T/C. Put plainly: NCI In Vivo Anticancer Drug Screen. Data for tumor model L1210 Leukemia (intraperitoneal) in B6D2F1 (BDF1) mice. Particulars: endpoint: mean survival time, higher = longer survival. The procedure, abridged: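 Antitumor effect is assessed in tumor-bearing animals. Survival in the compound arm is compared with a vehicle-dosed control arm and expressed as their quotient.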

[1] abbreviates: dose: 100.0 mg/kg/injection, schedule: Q01DX001 (ip), vehicle: saline.
The mark [2] stands for this setting: dose: 100.0 mg/kg/injection, schedule: Q04DX003 (ip), vehicle: saline.
Setting [3] is: dose: 200.0 mg/kg/injection, schedule: Q01DX001 (ip), vehicle: saline.
Where [4] appears, read: dose: 400.0 mg/kg/injection, schedule: Q01DX001 (ip), vehicle: saline.
[5] abbreviates: dose: 100.0 mg/kg/injection, schedule: Q04DX003 (ip), vehicle: saline with Tween-80.
Setting [6] is: dose: 200.0 mg/kg/injection, schedule: Q04DX003 (ip), vehicle: saline with Tween-80.
Setting [7] is: dose: 400.0 mg/kg/injection, schedule: Q04DX003 (ip), vehicle: saline with Tween-80.
Setting [8] is: dose: 200.0 mg/kg/injection, schedule: Q04DX003 (ip), vehicle: saline.
[9] abbreviates: dose: 400.0 mg/kg/injection, schedule: Q04DX003 (ip), vehicle: saline.
The mark [10] stands for this setting: dose: 50.0 mg/kg/injection, schedule: Q01DX001 (ip), vehicle: saline.
The mark [11] stands for this setting: dose: 100.0 mg/kg/injection, schedule: Q01DX009 (ip), vehicle: saline.
The mark [12] stands for this setting: dose: 10.0 mg/kg/injection, schedule: Q01DX001 (ip), vehicle: saline.
The mark [13] stands for this setting: dose: 20.0 mg/kg/injection, schedule: Q01DX001 (ip), vehicle: saline.

Structures are written as SMILES. Values joined by “and” are separate entries in the source; they are usually repeats but may differ in a detail not shown here. Equal entries are not always repeated. Inconclusive results and toxic doses are left out.

Turning to `Cn1cc[nH]c1=S`, the T/C is 114 % of control (dose: 25.0 mg/kg/injection, schedule: Q04DX003 (ip), vehicle: saline); 90 % of control (dose: 50.0 mg/kg/injection, schedule: Q04DX003 (ip), vehicle: saline); 110 % of control under setting [1]; 98 % of control under setting [2]; 107 % of control under setting [3]; 105 % of control under setting [4].
In the case of `Oc1cccc2c1ccc1ccc3ccccc3c12`, the T/C under setting [5] was 92 % of control, the T/C under setting [6] was 95 % of control and the T/C under setting [7] was 90 % of control.
With `CCOC(=O)c1ccc(NCC(=O)CNc2nc(N)nc(N)c2[N+](=O)[O-])cc1`, the T/C runs as follows: (dose: 75.0 mg/kg/injection, schedule: Q01DX001 (ip), vehicle: other) 95 % of control; (dose: 150.0 mg/kg/injection, schedule: Q01DX001 (ip), vehicle: other) 90 % of control; (dose: 300.0 mg/kg/injection, schedule: Q01DX001 (ip), vehicle: other) 87 % of control.
On to `CCOC(=O)/C=C/P(=O)(OCC)OCC`, for which the T/C is, setting by setting: under setting [2], 108 % of control; under setting [8], 94 % of control; under setting [9], 96 % of control.
As to `NC(CSC(c1ccccc1)(c1ccccc1)c1ccc(Cl)cc1)C(=O)O` (stereo not given), the T/C is 100 % of control (dose: 1.3 mg/kg/injection, schedule: Q01DX009 (ip), vehicle: saline); 118 % of control (dose: 2.0 mg/kg/injection, schedule: Q01DX009 (ip), vehicle: saline); 151 % of control (dose: 6.25 mg/kg/injection, schedule: Q01DX009 (ip), vehicle: acetone); 156 % of control (dose: 12.5 mg/kg/injection, schedule: Q01DX009 (ip), vehicle: acetone); 163 % of control (dose: 12.5 mg/kg/injection, schedule: Q01DX009 (ip), vehicle: other).
Consider `COC(=O)C(C)Oc1ccc([N+](=O)[O-])c(O)c1[N+](=O)[O-]` (stereo not given), for which the T/C is 100 % of control (dose: 100.0 mg/kg/injection, schedule: Q04DX003 (ip), vehicle: Klucel (hydroxypropylcellulose) (HPC)); 91 % of control (dose: 200.0 mg/kg/injection, schedule: Q04DX003 (ip), vehicle: Klucel (hydroxypropylcellulose) (HPC)); 96 % of control (dose: 400.0 mg/kg/injection, schedule: Q04DX003 (ip), vehicle: Klucel (hydroxypropylcellulose) (HPC)).
Regarding `Cc1[nH]c(=O)[nH]c(=O)c1CN(C)Cc1cc(Cl)cc(Cl)c1O`, the T/C by setting is: under setting [10], 95 % of control; under setting [1], 95 % of control; under setting [3], 95 % of control; under setting [4], 101 % of control.
Consider `N#Cc1ccccc1N=NNc1ccc(-c2nc(N)nc(N)n2)cc1`, for which the T/C is 94 % of control under setting [2], 89 % of control under setting [8] and 89 % of control under setting [9].
Consider `COc1ccc(C(=O)C(C)C(C)OC(=O)c2ccccc2C(=O)O)cc1` (stereo not given), for which the T/C was 96 % of control under setting [1], 98 % of control under setting [3] and 93 % of control under setting [4].
Consider `CCCCCCCCCCCCCCC(CCCCCCCCCCCCCC)C1CCCCC1`, for which the T/C runs as follows: (dose: 100.0 mg/kg/injection, schedule: Q01DX001 (ip), vehicle: saline with Tween-80) 92 % of control; (dose: 200.0 mg/kg/injection, schedule: Q01DX001 (ip), vehicle: saline with Tween-80) 95 % of control; (dose: 400.0 mg/kg/injection, schedule: Q01DX001 (ip), vehicle: saline with Tween-80) 94 % of control.
Turning to `CCCCCCCCCCCCCCCCNC(=S)N/N=C(/C=C/c1ccccc1)C(=O)O`, the T/C runs as follows: (dose: 15.0 mg/kg/injection, schedule: Q01DX Z (ip), vehicle: carboxymethylcellulose (CMC)) 101 % of control; (dose: 30.0 mg/kg/injection, schedule: Q01DX Z (ip), vehicle: carboxymethylcellulose (CMC)) 108 % of control; (dose: 30.0 mg/kg/injection, schedule: Q01DX Z (oral), vehicle: carboxymethylcellulose (CMC)) 112 % of control; (dose: 60.0 mg/kg/injection, schedule: Q01DX Z (ip), vehicle: carboxymethylcellulose (CMC)) 113 % of control; (dose: 60.0 mg/kg/injection, schedule: Q01DX Z (oral), vehicle: carboxymethylcellulose (CMC)) 111 % of control; (dose: 120.0 mg/kg/injection, schedule: Q01DX Z (oral), vehicle: carboxymethylcellulose (CMC)) 100 % of control and 101 % of control. For the same molecule, the T/C is 108 % of control and 109 % of control (dose: 240.0 mg/kg/injection, schedule: Q01DX Z (oral), vehicle: carboxymethylcellulose (CMC)); 109 % of control (dose: 480.0 mg/kg/injection, schedule: Q01DX Z (oral), vehicle: carboxymethylcellulose (CMC)); 113 % of control (dose: 960.0 mg/kg/injection, schedule: Q01DX Z (oral), vehicle: carboxymethylcellulose (CMC)).
Consider `CSCSCC(CO)NCc1ccccc1` (stereo not given), for which the T/C by setting is: (dose: 50.0 mg/kg/injection, schedule: Q01DX009 (ip), vehicle: saline) 110 % of control; under setting [1], 97 % of control; under setting [11], 104 % of control; under setting [3], 100 % of control.
On to `c1ccc(N=NNc2ccccc2)cc1`, for which the T/C is, setting by setting: (dose: 6.25 mg/kg/injection, schedule: Q01DX009 (ip), vehicle: saline with Tween-80) 100 % of control; (dose: 12.5 mg/kg/injection, schedule: Q01DX009 (ip), vehicle: saline with Tween-80) 94 % of control; (dose: 25.0 mg/kg/injection, schedule: Q01DX009 (ip), vehicle: saline with Tween-80) 98 % of control.
Regarding `BrP(Nc1cccc(NP(Br)(c2ccccc2)(c2ccccc2)c2ccccc2)c1)(c1ccccc1)(c1ccccc1)c1ccccc1`, the T/C is, setting by setting: under setting [12], 99 % of control; under setting [13], 99 % of control.
Regarding `CC(=O)Nc1ncc(Oc2ccc(Cl)cc2Cl)c(=O)[nH]1`, the T/C (dose: 50.0 mg/kg/injection, schedule: Q01DX001 (ip), vehicle: carboxymethylcellulose (CMC)) is 102 % of control; the T/C (dose: 100.0 mg/kg/injection, schedule: Q01DX001 (ip), vehicle: carboxymethylcellulose (CMC)) is 119 % of control; the T/C (dose: 200.0 mg/kg/injection, schedule: Q01DX001 (ip), vehicle: carboxymethylcellulose (CMC)) is 96 % of control; the T/C (dose: 400.0 mg/kg/injection, schedule: Q01DX001 (ip), vehicle: carboxymethylcellulose (CMC)) is 102 % of control.
Turning to `CCCC(=O)Nc1cc2c3c(c1)CCCN3CCC2`, the T/C (dose: 50.0 mg/kg/injection, schedule: Q01DX009 (ip), vehicle: saline with Tween-80) was 96 % of control.
Consider `CC(C)(C)C(O)(C(=O)O)C(C)(C)C`, for which the T/C runs as follows: under setting [10], 110 % of control; under setting [1], 98 % of control; under setting [3], 104 % of control; under setting [4], 100 % of control.
As for `COc1ccc(/C=C2/COC/C(=C\c3ccc(OC)cc3)C2=O)cc1`, the T/C is, setting by setting: under setting [11], 91 % of control; (dose: 200.0 mg/kg/injection, schedule: Q01DX009 (ip), vehicle: saline) 91 % of control; (dose: 400.0 mg/kg/injection, schedule: Q01DX009 (ip), vehicle: saline) 91 % of control.
Regarding `Brc1ccccc1-c1ccccc1-c1ccccc1`, the T/C runs as follows: under setting [5], 92 % of control; under setting [6], 100 % of control; under setting [7], 92 % of control.
Consider `CC(C)=CCNC12CC3CC(CC(C3)C1)C2`, for which the T/C is, setting by setting: (dose: 5.0 mg/kg/injection, schedule: Q01DX001 (ip), vehicle: saline) 101 % of control; under setting [12], 106 % of control; under setting [13], 108 % of control; (dose: 40.0 mg/kg/injection, schedule: Q01DX001 (ip), vehicle: saline) 107 % of control; (dose: 80.0 mg/kg/injection, schedule: Q01DX001 (ip), vehicle: saline) 104 % of control.
In the case of `Nc1ccc(/C=C2\C=Cc3ccccc32)cc1`, the T/C (dose: 8.5 mg/kg/injection, schedule: Q01DX009 (ip), vehicle: saline) is 98 % of control; the T/C (dose: 17.0 mg/kg/injection, schedule: Q01DX001 (ip), vehicle: acetone) was 98 % of control; the T/C (dose: 17.0 mg/kg/injection, schedule: Q01DX009 (ip), vehicle: saline) was 97 % of control; the T/C (dose: 35.0 mg/kg/injection, schedule: Q01DX001 (ip), vehicle: acetone) was 105 % of control; the T/C (dose: 35.0 mg/kg/injection, schedule: Q01DX009 (ip), vehicle: saline) is 101 % of control; the T/C (dose: 100.0 mg/kg/injection, schedule: Q01DX001 (ip), vehicle: olive oil, sesame oil, peanut oil) was 94 % of control.
